Reference: patent US6596265B1, “Use of sophorolipids comprising diacetyl lactones as agent for stimulating skin fibroblast metabolism” (Institut Français du Pétrole, priority 1998, dated 2003)
“And” between values parts separate entries of the source, which are not always exact repeats. Equal entries are not always repeated. Marks after values point to notes of the source that are not given here.

How the values were obtained:
Type in all cases: cell-based
Conditions in all cases: 100 μg/ml, 3 days incubation
[1] = tested on: normal human dermal fibroblast cultures; assay: Protein content of fibroblast cell layers (cell division), Coomassie Blue/Bradford
Description: The effects of the product on cell division were evaluated by measuring the DNA and proteins in the cell layers after 3 days of incubation. Fibroblasts were isolated from the operative residue of abdominal plastic surgery carried out on a person. The cells were cultivated in fibroblast culture medium (FCM) at 37° C. in a moist atmosphere containing 5% of CO2 until confluence of the monolayers. The culture medium used was fibroblast culture medium (FCM), constituted by MEM/M199 (¾, ¼, v/v) with added penicillin (50 IU/ml), streptomycin (50 μg/ml), sodium bicarbonate (0.2%, wv/v) and SVF (10%, v/v). The fibroblast incubation medium (FIM) with the products was constituted by MEM/M199 (¾, ¼, v/v) with added penicillin (50 IU/ml), streptomycin (50 μg/ml), sodium bicarbonate (0.2%, w/v) and SVF (2%, v/v). It contained 1 μCi/ml of tritiated proline. The purified lactone fraction was diluted in FIM and was tested at 0.02, 0.08 and 0.4 μg/ml (dry matter). The unrefined sophorolipids were tested at 0.08; 0.4 and 2 μg/ml. The ascorbic acid was tested at 100 μg/ml (0.5 mM) in FIM. The fibroblast cultures were incubated for 3 days at 37° C. in a moist atmosphere containing 5% of CO2. Reference cultures, incubated in the absence of the products to be tested, were produced in parallel. The tests were carried out in triplicate. […]

[2] = tested on: normal human dermal fibroblasts; assay: DNA content of fibroblast cell layers (cell division), HOECHST 33258 fluorimetry
Description: The effects of the product on cell division were evaluated by measuring the DNA and proteins in the cell layers after 3 days of incubation. Fibroblasts were isolated from the operative residue of abdominal plastic surgery carried out on a person. The cells were cultivated in fibroblast culture medium (FCM) at 37° C. in a moist atmosphere containing 5% of CO2 until confluence of the monolayers. The culture medium used was fibroblast culture medium (FCM), constituted by MEM/M199 (¾, ¼, v/v) with added penicillin (50 IU/ml), streptomycin (50 μg/ml), sodium bicarbonate (0.2%, wv/v) and SVF (10%, v/v). The fibroblast incubation medium (FIM) with the products was constituted by MEM/M199 (¾, ¼, v/v) with added penicillin (50 IU/ml), streptomycin (50 μg/ml), sodium bicarbonate (0.2%, w/v) and SVF (2%, v/v). It contained 1 μCi/ml of tritiated proline. The purified lactone fraction was diluted in FIM and was tested at 0.02, 0.08 and 0.4 μg/ml (dry matter). The ascorbic acid was tested at 100 μg/ml (0.5 mM) in FIM. The fibroblast cultures were incubated for 3 days at 37° C. in a moist atmosphere containing 5% of CO2. Reference cultures, incubated in the absence of the products to be tested, were produced in parallel. The tests were carried out in triplicate. After incubation, the incubation media were removed then the cell layers were rinsed with PBS The cells were then lysed by ultrasound. The DNA was assayed using a fluorimetric method using HOECHST 33258 reactant. The proteins in the cell lysate were assayed using the Coomassie Blue method described by Bradford. These assays ensured a suitable interpretation of the results obtained for collagen neosynthesis. Treatment of data: the groups of data (reference group and treated groups) were processed by a one-way variance analysis (ANOVA 1, p<0.05) followed by a Dunnett test (p<0.05). The effect of the products was thus compared with the control group.

[3] = tested on: normal human dermal fibroblast cultures; assay: Collagen neosynthesis: tritiated proline incorporation into cell layer collagens
From the text: The effect of purified lactones on the synthesis of collagens in normal human dermal fibroblast cultures was studied. Collagyens are quantitatively the major dermal proteins. Proline and hydroxyproline constitute 30% of the constituent amino acids of collagens (a high percentage and much higher than that of the majority of other fibroblast proteins). Hydroxyproline is not an amino acid incorporated during the synthesis of collagens, as is the case with proline. Hydroxylation of proline, which leads to the presence of hydroxyproline in collagens, is a collagen maturation process which occurs once synthesis is complete. Measuring the incorporation of tritiated proline into fibroblast proteins thus provides a good index of collagen neosynthesis. […] Collagen neosynthesis was measured by monitoring the incorporation of radiolabelled proline into newly synthesised fibroblast proteins. […] Fractions (1) and (2) were measured together and grouped under the title “cell layer collagens”. […] Measurement of incorporation of tritiated proline into “cell layer collagens” the incorporation of tritiated proline into neosynthesised fibroblast proteins, the proteins present in the cells and deposited in the extracellular matrix, was evaluated after 3 days of incubation. The radioactivity of the cell lysate obtained as described above was measured by liquid scintillation with a β particle counter. […]

[4] = tested on: normal human dermal fibroblast cultures; assay: Collagen neosynthesis: tritiated proline incorporation into secreted collagens (culture medium, >30 kD)
From the text: The effect of purified lactones on the synthesis of collagens in normal human dermal fibroblast cultures was studied. Collagyens are quantitatively the major dermal proteins. Proline and hydroxyproline constitute 30% of the constituent amino acids of collagens (a high percentage and much higher than that of the majority of other fibroblast proteins). Hydroxyproline is not an amino acid incorporated during the synthesis of collagens, as is the case with proline. Hydroxylation of proline, which leads to the presence of hydroxyproline in collagens, is a collagen maturation process which occurs once synthesis is complete. […] Collagen neosynthesis was measured by monitoring the incorporation of radiolabelled proline into newly synthesised fibroblast proteins. […] Fractions (1) and (2) were measured together and grouped under the title “cell layer collagens”. […] Measurement of incorporation of tritiated proline into “secreted collagens”: the incorporation of tritiated proline into neosynthesised collagens secreted in the culture medium was evaluated after 3 days of incubation. […] The radioactivity of the high molecular weight protein fraction (retained on the filters) corresponded almost exclusively to the secreted collagens and was measured by liquid scintillation with a β particle counter. […]

For `O=C1O[C@H]([C@@H](O)CO)C(O)=C1O` [Ascorbic acid, ascorbic acid], the “Proteins in cell layer” value [1] was 108 % of reference, the “DNA content, percentage of control” value [2] was 90 percentage of control and the “DNA content, mean” value ([2]; mean of triplicate) was 7.5 μg/cell layer. For the same compound, the “DNA content, individual culture” value ([2]; single replicate) was 10 μg/cell layer and 6 μg/cell layer (2×), the Cell layer collagens [3] was 168%* % of control and the “Increase of cell layer collagens, factor” value ([3]; factor versus control) was 0.68. For the same compound, the “Secreted collagens (culture medium)” value [4] was 181%* % of control and the “Increase of secreted collagens, factor” value ([4]; factor versus control) was 1.81.
